This passage reports Kb and IC50 results from patent US8633211B2, “Bicyclic organic compounds suitable for the treatment of inflammatory or allergic conditions” (Novartis AG, priority 2007, dated 2014).

Assay [1] has as its target T1, human S1P2 receptor (Homo sapiens, UniProt O95136).
T1 construct: expressed in transfected cells; host or cells: CHO cells (membrane preparation)
Briefly: GTPγS binding assay (SPA), antagonism of S1P at S1P2. The following applies: GTP-γ-S binding assay, membranes of CHO cells expressing human S1P2, 5 nM S1P. Type of assay: biochemical. The procedure: The ability of compounds to antagonise S1P activity at S1P2 and S1P3 receptors was examined using GTPγS binding assays.
Membranes preparations were generated from CHO cells expressing either the human S1P2 or S1P3 receptors by homogenisation of the cell suspension and centrifugation at 40 000 g for 30 minutes at 4° C. The supernatant was removed, pellet re-suspended in a 10 mM HEPES, 10 mM EDTA buffer and centrifuged as above. The pellet was re-suspended and stored at −80° C. until use.
Scintillation proximity assay (SPA) technology was used for the GTPγS binding assays. Serial dilutions of test compounds were placed in a 96-well optiplate with 5 nM S1P, 1.25 μg membrane, 0.5 mg SPA beads, 0.3 μM GDP and 100 μM sodium orthovanidate, per well. The assay components were incubated for 2 hours to ensure equilibrium was attained. The assay was started by the addition of 300 pM [^35S]GTPγS per well and incubated for 60 minutes prior to centrifugation at 3000 rpm for 3 minutes and reading of a Packard TopCount.
Data were analysed using Activity Base (IDBS, UK) by fitting a four parameter logistic curve to generate IC50 values for each compound.
(GTPγS is a poorly hydrolysed GTP analogue; its binding reports G protein activation.)

Assay [2] addresses T2, human S1P4 (Homo sapiens, UniProt O95977).
T2 construct: expressed in transfected cells; host or cells: CHO (Chinese Hamster Ovary) S1P4/Gα16 cell clone
T2 sequence (O95977 1-384): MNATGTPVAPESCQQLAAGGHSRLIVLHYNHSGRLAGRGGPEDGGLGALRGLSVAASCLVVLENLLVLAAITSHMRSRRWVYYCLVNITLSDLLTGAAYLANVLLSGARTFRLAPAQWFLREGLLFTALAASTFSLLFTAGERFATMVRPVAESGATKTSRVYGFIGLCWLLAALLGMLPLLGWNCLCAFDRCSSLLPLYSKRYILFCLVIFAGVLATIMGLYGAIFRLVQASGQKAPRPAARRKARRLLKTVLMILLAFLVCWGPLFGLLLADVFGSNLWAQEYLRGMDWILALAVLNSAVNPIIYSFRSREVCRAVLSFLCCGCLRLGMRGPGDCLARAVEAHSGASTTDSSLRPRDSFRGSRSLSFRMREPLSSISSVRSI
Briefly: CHO Gα16 S1P4 intracellular Ca2+ (FLIPR) assay. The class given is cell-based. As to conditions: relative antagonism of S1P (EC80) induced Ca2+ change, CHO S1P4/Gα16 cells. The procedure: The cells are plated in 384 well black plates (10′000 cells per well). […] After washing, the cells are transferred to the FLIPR. […] This allows the determination of the maximal fluorescence (Fmax).

T1 sequence (O95136 whole entry): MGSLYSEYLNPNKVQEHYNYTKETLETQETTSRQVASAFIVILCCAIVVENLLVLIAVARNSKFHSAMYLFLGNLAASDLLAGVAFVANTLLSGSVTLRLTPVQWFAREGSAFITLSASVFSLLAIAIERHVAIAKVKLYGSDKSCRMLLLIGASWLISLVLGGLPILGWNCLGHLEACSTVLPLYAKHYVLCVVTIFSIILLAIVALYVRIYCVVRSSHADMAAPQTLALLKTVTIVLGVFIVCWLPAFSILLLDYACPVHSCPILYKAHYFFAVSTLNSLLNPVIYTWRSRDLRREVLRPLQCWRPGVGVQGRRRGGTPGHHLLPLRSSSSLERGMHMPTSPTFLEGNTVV

`CCOc1ccc(C(=O)Cn2c(=O)n(CCCC(=O)NC3CCCC3)c(=O)c3cc(Cl)ccc32)cc1Cl` [Compound 3-4, 4-{6-Chloro-1-[2-(3-chloro-4-ethoxy-phenyl)-2-oxo-ethyl]-2,4-dioxo-1,4-dihydro-2H quinazolin-3-yl}-N-cyclopentyl-butyramide] registered an antagonist dissociation constant (Kb) in assay [1] of 4.8 nM.

The compound `COc1cc(OC)c(NC(=O)Cn2c(=O)n(CC(=O)O)c(=O)c3ccccc32)cc1Cl` [Example 1-1, {1-[(5-Chloro-2,4-dimethoxy-phenylcarbamoyl)-methyl]-2,4-dioxo-1,4-dihydro-2H-quinazolin-3-yl}-acetic acid] gave a Kb in assay [1] of 0.8 nM.

As to `COc1cc(OC)c(NC(=O)Cn2c(=O)n(CC(=O)NCCc3cccnc3)c(=O)c3ccccc32)cc1Cl` [Example 1-13, N-(5-Chloro-2,4-dimethoxy-phenyl)-2-{2,4-dioxo-3-[(2-pyridin-3-yl-ethylcarbamoyl)-methyl]-3,4-dihydro-2H-quinazolin-1-yl}-acetamide], the Kb in assay [1] came out at 1.9 nM.

For the compound `COc1cc(OC)c(NC(=O)Cn2c(=O)n(CC(=O)NCCc3ccccc3)c(=O)c3ccccc32)cc1Cl` [Example 1-35, 2-{1-[(5-Chloro-2,4-dimethoxy-phenylcarbamoyl)-methyl]-2,4-dioxo-1,4-dihydro-2H-quinazolin-3-yl}-N-phenethyl-acetamide], in assay [2], inhibition was half-maximal at 15 nM (IC50). In other words, the double-digit nanomolar range.

In the case of `COc1cc(OC)c(NC(=O)Cn2c(=O)n(CC(=O)OC(C)(C)C)c(=O)c3ccccc32)cc1Cl` [Example 1-37, {1-[(5-Chloro-2,4-dimethoxy-phenylcarbamoyl)-methyl]-2,4-dioxo-1,4-dihydro-2H-quinazolin-3-yl}-acetic acid tert butyl ester], the midpoint of inhibition in assay [2], the IC50, lay at 880 nM.

Turning to `COc1cc(OC)c(NC(=O)Cn2c(=O)n(-c3ccc(CC(=O)NCCc4ccccc4)cc3)c(=O)c3ccccc32)cc1Cl` [Example 2-1, 2-(4-{1-[(5-Chloro-2,4-dimethoxy-phenylcarbamoyl)-methyl]-2,4-dioxo-1,4-dihydro-2H-quinazolin-3-yl}-phenyl)-N-phenethyl-acetamide], in assay [1], the Kb was found to be 3.6 nM.

The Kb is the equilibrium dissociation constant of an antagonist, usually derived from a functional assay. For orientation: IC50 means the concentration that inhibits the measured activity by half.
